In ChEMBL document CHEMBL2390887, “Pyrazole derivatives as inhibitors of arachidonic acid-induced platelet aggregation” (Eur J Med Chem, 2013):
Active and inactive are the calls of the source. The calls are words filed in the database; no cut-off is given here.

Test system: not listed separately
Test: Antiplatelet activity in human platelet rich plasma assessed as inhibition of collagen-induced platelet aggregation at 10 uM preincubated for 3 mins before collagen challenge by turbidimetric method
Type: functional

SMILES | inhibition at 10 µM [%]
COc1ccc(-n2nc(C(=O)Oc3ccc4ccccc4c3)cc2-c2ccc(Cl)cc2)nn1 | 22.4
COc1ccc(-n2nc(C(=O)Oc3cccnc3Cl)cc2-c2ccc(Cl)cc2)nn1 | 8.49
COc1ccc(-n2nc(C(=O)OCCC(C)C)cc2-c2ccc(Cl)cc2)nn1 | 66.7
COc1ccc(-n2nc(C(=O)Oc3cccc(C(C)C)c3)cc2-c2ccc(Cl)cc2)nn1 | 42.3
COc1ccc(-n2nc(C(=O)Oc3ccc(-n4ccnc4)cc3)cc2-c2ccc(Cl)cc2)nn1 | 2.11
COc1ccc(OC(=O)c2cc(-c3ccc(Cl)cc3)n(-c3ccc(OC)nn3)n2)cc1 | 24.2
COc1ccc(NC(=O)c2cc(-c3ccc(Cl)cc3)n(-c3ccc(OC)nn3)n2)cc1 | 72.1
COc1ccc(-n2nc(C(=O)N3CCN(c4ccc(C(F)(F)F)cn4)CC3)cc2-c2ccc(Cl)cc2)nn1 | 16
COc1ccc(-n2nc(C(=O)Nc3ccc(Cl)cc3)cc2-c2ccc(Cl)cc2)nn1 | 70.5
COc1ccc(-n2nc(C(=O)Nc3ccncc3)cc2-c2ccc(Cl)cc2)nn1 | 73.6
COc1ccc(-n2nc(C(=O)N3CCN(c4ccc(C)cc4)CC3)cc2-c2ccc(Cl)cc2)nn1 | 20.1
COc1ccc(-n2nc(C(=O)Oc3ccc(C)cc3)cc2-c2ccc(Cl)cc2)nn1 | 48.5
COc1ccc(-n2nc(C(=O)Oc3ccc(C4CCCC4)cc3)cc2-c2ccc(Cl)cc2)nn1 | 19.9
COc1ccc(-n2nc(C(=O)N3CCOCC3)cc2-c2ccc(Cl)cc2)nn1 | 70.9
COc1ccc(-n2nc(C(=O)N3CCN(c4ncccn4)CC3)cc2-c2ccc(Cl)cc2)nn1 | 22.9
CCCOc1ccc(OC(=O)c2cc(-c3ccc(Cl)cc3)n(-c3ccc(OC)nn3)n2)cc1 | 61.9
COc1ccc(-n2nc(C(=O)N3CCCCC3)cc2-c2ccc(Cl)cc2)nn1 | 71.1
COc1ccc(-n2nc(C(=O)N3CCN(c4ccc(F)cc4)CC3)cc2-c2ccc(Cl)cc2)nn1 | 32.2

Test system: not listed separately
Test: (§1) Antiplatelet activity in human platelet rich plasma assessed as inhibition of ADP-induced platelet aggregation at 10 uM preincubated for 3 mins before ADP challenge by turbidimetric method
Type: functional

SMILES | inhibition at 10 µM [%]
COc1ccc(-n2nc(C(=O)Oc3ccc4ccccc4c3)cc2-c2ccc(Cl)cc2)nn1 | 3.34
COc1ccc(-n2nc(C(=O)OCCC(C)C)cc2-c2ccc(Cl)cc2)nn1 | 6.77
COc1ccc(NC(=O)c2cc(-c3ccc(Cl)cc3)n(-c3ccc(OC)nn3)n2)cc1 | 3.92
COc1ccc(-n2nc(C(=O)N3CCN(c4ccc(C(F)(F)F)cn4)CC3)cc2-c2ccc(Cl)cc2)nn1 | 6.8
COc1ccc(-n2nc(C(=O)Nc3ccc(Cl)cc3)cc2-c2ccc(Cl)cc2)nn1 | 7.93
COc1ccc(-n2nc(C(=O)Nc3ccncc3)cc2-c2ccc(Cl)cc2)nn1 | 8.14
COc1ccc(-n2nc(C(=O)N3CCOCC3)cc2-c2ccc(Cl)cc2)nn1 | 11.3
COc1ccc(-n2nc(C(=O)N3CCN(c4ncccn4)CC3)cc2-c2ccc(Cl)cc2)nn1 | 2.7

Test system: Platelet
Test: as §1
Type: functional

SMILES | inhibition
COc1ccc(-n2nc(C(=O)Oc3cccnc3Cl)cc2-c2ccc(Cl)cc2)nn1 | inactive
COc1ccc(-n2nc(C(=O)Oc3cccc(C(C)C)c3)cc2-c2ccc(Cl)cc2)nn1 | inactive
COc1ccc(-n2nc(C(=O)Oc3ccc(-n4ccnc4)cc3)cc2-c2ccc(Cl)cc2)nn1 | inactive
COc1ccc(OC(=O)c2cc(-c3ccc(Cl)cc3)n(-c3ccc(OC)nn3)n2)cc1 | inactive
COc1ccc(-n2nc(C(=O)N3CCN(c4ccc(C)cc4)CC3)cc2-c2ccc(Cl)cc2)nn1 | inactive
COc1ccc(-n2nc(C(=O)Oc3ccc(C)cc3)cc2-c2ccc(Cl)cc2)nn1 | inactive
COc1ccc(-n2nc(C(=O)Oc3ccc(C4CCCC4)cc3)cc2-c2ccc(Cl)cc2)nn1 | inactive
CCCOc1ccc(OC(=O)c2cc(-c3ccc(Cl)cc3)n(-c3ccc(OC)nn3)n2)cc1 | inactive
COc1ccc(-n2nc(C(=O)N3CCCCC3)cc2-c2ccc(Cl)cc2)nn1 | inactive
COc1ccc(-n2nc(C(=O)N3CCN(c4ccc(F)cc4)CC3)cc2-c2ccc(Cl)cc2)nn1 | inactive

Test system: not listed separately
Test: (§2) Antiplatelet activity in human platelet rich plasma assessed as inhibition of arachidonic acid-induced platelet aggregation at 10 uM preincubated for 3 mins before arachidonic acid challenge by turbidimetric method
Type: functional

SMILES | inhibition at 10 µM [%]
COc1ccc(-n2nc(C(=O)Oc3ccc4ccccc4c3)cc2-c2ccc(Cl)cc2)nn1 | 86.3
COc1ccc(-n2nc(C(=O)Oc3cccnc3Cl)cc2-c2ccc(Cl)cc2)nn1 | 86.5
COc1ccc(-n2nc(C(=O)OCCC(C)C)cc2-c2ccc(Cl)cc2)nn1 | 91.2
COc1ccc(-n2nc(C(=O)Oc3cccc(C(C)C)c3)cc2-c2ccc(Cl)cc2)nn1 | 84
COc1ccc(-n2nc(C(=O)Oc3ccc(-n4ccnc4)cc3)cc2-c2ccc(Cl)cc2)nn1 | 90
COc1ccc(OC(=O)c2cc(-c3ccc(Cl)cc3)n(-c3ccc(OC)nn3)n2)cc1 | 84.2
COc1ccc(NC(=O)c2cc(-c3ccc(Cl)cc3)n(-c3ccc(OC)nn3)n2)cc1 | 79.9
COc1ccc(-n2nc(C(=O)N3CCN(c4ccc(C(F)(F)F)cn4)CC3)cc2-c2ccc(Cl)cc2)nn1 | 65.5
COc1ccc(-n2nc(C(=O)Nc3ccc(Cl)cc3)cc2-c2ccc(Cl)cc2)nn1 | 74.3
COc1ccc(-n2nc(C(=O)Nc3ccncc3)cc2-c2ccc(Cl)cc2)nn1 | 80.5
COc1ccc(-n2nc(C(=O)N3CCN(c4ccc(C)cc4)CC3)cc2-c2ccc(Cl)cc2)nn1 | 97.6
COc1ccc(-n2nc(C(=O)Oc3ccc(C)cc3)cc2-c2ccc(Cl)cc2)nn1 | 95
COc1ccc(-n2nc(C(=O)Oc3ccc(C4CCCC4)cc3)cc2-c2ccc(Cl)cc2)nn1 | 86.7
COc1ccc(-n2nc(C(=O)N3CCOCC3)cc2-c2ccc(Cl)cc2)nn1 | 94.8
CCCOc1ccc(OC(=O)c2cc(-c3ccc(Cl)cc3)n(-c3ccc(OC)nn3)n2)cc1 | 93
COc1ccc(-n2nc(C(=O)N3CCCCC3)cc2-c2ccc(Cl)cc2)nn1 | 94.8
COc1ccc(-n2nc(C(=O)N3CCN(c4ccc(F)cc4)CC3)cc2-c2ccc(Cl)cc2)nn1 | 79.7

Test system: Platelet
Test: as §2
Type: functional

SMILES | inhibition
COc1ccc(-n2nc(C(=O)N3CCN(c4ncccn4)CC3)cc2-c2ccc(Cl)cc2)nn1 | inactive

Test system: not listed separately
Test: (§3) Antiplatelet activity in human platelet rich plasma assessed as inhibition of arachidonic acid-induced platelet aggregation at 1 uM preincubated for 3 mins before arachidonic acid challenge by turbidimetric method
Type: functional

SMILES | inhibition at 1 µM [%]
COc1ccc(-n2nc(C(=O)Oc3ccc4ccccc4c3)cc2-c2ccc(Cl)cc2)nn1 | 2.36
COc1ccc(-n2nc(C(=O)OCCC(C)C)cc2-c2ccc(Cl)cc2)nn1 | 19
COc1ccc(-n2nc(C(=O)Oc3cccc(C(C)C)c3)cc2-c2ccc(Cl)cc2)nn1 | 8.97
COc1ccc(-n2nc(C(=O)Oc3ccc(-n4ccnc4)cc3)cc2-c2ccc(Cl)cc2)nn1 | 5.25
COc1ccc(OC(=O)c2cc(-c3ccc(Cl)cc3)n(-c3ccc(OC)nn3)n2)cc1 | 6.05
COc1ccc(NC(=O)c2cc(-c3ccc(Cl)cc3)n(-c3ccc(OC)nn3)n2)cc1 | 94.2
COc1ccc(-n2nc(C(=O)N3CCN(c4ccc(C(F)(F)F)cn4)CC3)cc2-c2ccc(Cl)cc2)nn1 | 10.9
COc1ccc(-n2nc(C(=O)Nc3ccc(Cl)cc3)cc2-c2ccc(Cl)cc2)nn1 | 80.9
COc1ccc(-n2nc(C(=O)Nc3ccncc3)cc2-c2ccc(Cl)cc2)nn1 | 84.9
COc1ccc(-n2nc(C(=O)N3CCN(c4ccc(C)cc4)CC3)cc2-c2ccc(Cl)cc2)nn1 | 3.96
COc1ccc(-n2nc(C(=O)Oc3ccc(C)cc3)cc2-c2ccc(Cl)cc2)nn1 | 23.6
COc1ccc(-n2nc(C(=O)N3CCOCC3)cc2-c2ccc(Cl)cc2)nn1 | 92.7
CCCOc1ccc(OC(=O)c2cc(-c3ccc(Cl)cc3)n(-c3ccc(OC)nn3)n2)cc1 | 3.87
COc1ccc(-n2nc(C(=O)N3CCCCC3)cc2-c2ccc(Cl)cc2)nn1 | 92.9

Test system: Platelet
Test: as §3
Type: functional

SMILES | inhibition
COc1ccc(-n2nc(C(=O)Oc3cccnc3Cl)cc2-c2ccc(Cl)cc2)nn1 | inactive
COc1ccc(-n2nc(C(=O)Oc3ccc(C4CCCC4)cc3)cc2-c2ccc(Cl)cc2)nn1 | inactive
COc1ccc(-n2nc(C(=O)N3CCN(c4ncccn4)CC3)cc2-c2ccc(Cl)cc2)nn1 | inactive
COc1ccc(-n2nc(C(=O)N3CCN(c4ccc(F)cc4)CC3)cc2-c2ccc(Cl)cc2)nn1 | inactive

Test system: not listed separately
Test: Antiplatelet activity in human platelet rich plasma assessed as inhibition of collagen-induced platelet aggregation at 1 uM preincubated for 3 mins before collagen challenge by turbidimetric method
Type: functional

SMILES | inhibition at 1 µM [%]
COc1ccc(-n2nc(C(=O)OCCC(C)C)cc2-c2ccc(Cl)cc2)nn1 | 34.2
COc1ccc(NC(=O)c2cc(-c3ccc(Cl)cc3)n(-c3ccc(OC)nn3)n2)cc1 | 43.6
COc1ccc(-n2nc(C(=O)Nc3ccc(Cl)cc3)cc2-c2ccc(Cl)cc2)nn1 | 25.7
COc1ccc(-n2nc(C(=O)Nc3ccncc3)cc2-c2ccc(Cl)cc2)nn1 | 77.6
COc1ccc(-n2nc(C(=O)N3CCOCC3)cc2-c2ccc(Cl)cc2)nn1 | 74.2
CCCOc1ccc(OC(=O)c2cc(-c3ccc(Cl)cc3)n(-c3ccc(OC)nn3)n2)cc1 | 32.2
COc1ccc(-n2nc(C(=O)N3CCCCC3)cc2-c2ccc(Cl)cc2)nn1 | 76.8

Test system: not listed separately
Test: Antiplatelet activity in human platelet rich plasma assessed as inhibition of arachidonic acid-induced platelet aggregation at 100 uM preincubated for 3 mins before arachidonic acid challenge by turbidimetric method
Type: functional

SMILES | inhibition at 100 µM [%]
CCOC(=O)c1cc(-c2ccc(Cl)cc2)n(-c2ccc(Cl)nn2)n1 | 67

Test system: not listed separately
Test: Antiplatelet activity in human platelet rich plasma assessed as inhibition of arachidonic acid-induced platelet aggregation preincubated for 3 mins before arachidonic acid challenge by turbidimetric method
Type: functional

SMILES | IC50 [nM]
COc1ccc(-n2nc(CCC(=O)N3CCCCC3)cc2-c2ccc(Cl)cc2)nn1 | 920
O=C(c1cc(-c2ccc(Cl)cc2)n[nH]1)N1CCOCC1 | > 10000
COc1ccc(-c2onc(C(=O)N3CCCCC3)c2-c2ccc(Cl)cc2)cc1 | 5030
COc1ccc(-n2nc(C(=O)OCCC(C)C)cc2-c2ccc(Cl)cc2)nn1 | 1330
COc1ccc(-n2nc(C(=O)N3CCOCC3)cc2-c2ccc(Cl)cc2)cc1 | 7.3
CS(=O)(=O)c1ccc(-n2nc(C(=O)N3CCOCC3)cc2-c2ccc(Cl)cc2)nn1 | > 20000
COc1ccc(-n2nc(C(=O)N3CCCCC3)cc2C)nn1 | > 10000
COc1ccc(NC(=O)c2cc(-c3ccc(Cl)cc3)n(-c3ccc(OC)nn3)n2)cc1 | 400
COc1ccc(-n2nc(C(=O)N3CCN(c4ccc(C(F)(F)F)cn4)CC3)cc2-c2ccc(Cl)cc2)nn1 | 5490
COc1ccc(-n2nc(C(=O)Nc3ccc(Cl)cc3)cc2-c2ccc(Cl)cc2)nn1 | 610
COc1ccc(-n2nc(C(=O)Nc3ccncc3)cc2-c2ccc(Cl)cc2)nn1 | 110
COc1ccc(-n2nc(CCC(=O)N3CCOCC3)cc2-c2ccc(Cl)cc2)nn1 | 1080
COc1ccc(-n2nc(C(=O)N3CCN(c4ccc(C)cc4)CC3)cc2-c2ccc(Cl)cc2)nn1 | 4670
CC(=O)Oc1ccccc1C(=O)O [ASPIRIN] | 7760
COc1ccc(-c2onc(C(=O)N3CCOCC3)c2-c2ccc(Cl)cc2)cc1 | 18400
Cn1nc(-c2ccc(Cl)cc2)cc1C(=O)N1CCOCC1 | > 10000
Cn1nc(-c2ccc(Cl)cc2)cc1C(=O)N1CCCCC1 | > 10000
O=C(c1cc(-c2ccc(Cl)cc2)n(-c2ccc(=O)[nH]n2)n1)N1CCCCC1 | 2090
COc1ccc(-n2nc(C(=O)N3CCCC3)cc2-c2ccc(Cl)cc2)nn1 | 15
COc1ccc2c(c1)c(CC(=O)O)c(C)n2C(=O)c1ccc(Cl)cc1 [INDOMETHACIN] | 1620
COc1ccc(-n2nc(C(=O)N3CCOCC3)cc2-c2ccc(Cl)cc2)nn1 | 83
O=C(c1cc(-c2ccc(Cl)cc2)n(-c2ccc(=O)[nH]n2)n1)N1CCOCC1 | 12600
O=C(c1cc(-c2ccc(Cl)cc2)n[nH]1)N1CCCCC1 | > 10000
COc1ccc(-n2nc(C(=O)N3CCOCC3)cc2C)nn1 | > 10000
COc1ccc(-n2nc(C(=O)N3CCCCC3)cc2-c2ccc(Cl)cc2)nn1 | 41
CS(=O)(=O)c1ccc(-n2nc(C(=O)N3CCCCC3)cc2-c2ccc(Cl)cc2)nn1 | 19600
COc1ccc(-n2nc(C(=O)N3CCCCC3)cc2-c2ccc(Cl)cc2)cc1 | 7.9
COc1ccc(-n2nc(C(=O)N3CCCC3)cc2-c2ccc(Cl)cc2)cc1 | 5.7
